According to patent US20250154607A1, “ISOTHERMAL AMPLIFICATION OF PATHOGENS” (priority 2021, published 2025):
In brackets after ≈: the same amount, converted by molar mass.

Tests used:
RNase A [1] = target: T1, RNase A (Bos taurus, UniProt P61823); assay: Influenza B virus APA assay with RNase A in ELB (Elution/Lysis Buffer); format: biochemical; details: RNAse A 10 μg/ml; 2 minutes 58° C. in ELB with 0.2% SDS, without or with 10 mM DTT; β-CD 4% final
T1 sequence (P61823 27-150): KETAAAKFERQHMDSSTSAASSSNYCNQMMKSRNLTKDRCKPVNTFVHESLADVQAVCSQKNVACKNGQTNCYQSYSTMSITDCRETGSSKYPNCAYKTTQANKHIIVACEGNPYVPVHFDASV
Protocol: FIGS. 12A-12B depict data related to RNase A inactivation in an influenza B assay like the one in Example 4, with DTT in ELB (Elution/Lysis Buffer). […] After incubation, lyophilized APA reagents co-incubated 2 minutes 58° C., containing β-CD (4% final) were dissolved with the heated solutions, and FAM fluorescence collected every 15 seconds to monitor APA. […] The inclusion of DTT enables unimpeded operation of this POC influenza detection system in a mock sample containing very high level of purified RNase A ([…]). Moreover, while currently available methods can only achieve irreversible ribonuclease inactivation at a maximum 200 ng/ml, the compositions and methods provided herein show utility with 10 μg/ml to accommodate potentially larger amounts in patient samples.

RNase A [2] = target: T1, RNase A; assay: RNase Alert assay of RNase A activity recovery after SDS/DTT pretreatment; format: biochemical
Protocol: 2 ng RNase A was incubated 2 minutes at 58° C. in […] solutions containing either 10 mM DTT+0.2% SDS (+), 0.2% SDS (triangle), 10 mM DTT (square), or neither (solid line) and then the RNase Alert assay was used to study the recovery of any RNase activity upon sequestration of SDS after dissolving lyophilized APA reagents without enzymes but containing RNase Alert substrate and protective agent (4% βCD) with continued incubation and fluorescence data collection at 58° C. In the presence of RNase activity, the RNase alert indicator substrate releases detectable fluorescence. […] FIG. 11A depicts recovery of RNase A activity after identical pretreatment without addition of βCD, in this case monitoring activity in […] of the solution by transfer to an RNase alert “wet” reaction format. […] Thus, as shown here, simultaneous treatment with ionic detergent and reducing agent is required for successful irreversible inactivation under the conditions described herein. […] Without being bound by any particular theory, this may be related to the impact of cyclodextrin and other APA additives on the refolding process. This example also provides further confirmation that the prior art and currently available methods (e.g, employing a reducing agent but no denaturant) are inadequate under these conditions, with an independent, commercially available RNase assay.

RNase A [3] = target: T1, RNase A; assay: RNaseAlert assay of RNase A inactivation with CTAB and DTT after sequestration by HP-βCD; format: biochemical; details: for RNase A inactivation, activity upon sequestration of the detergent: 68° C.; for RNase A activity after CTAB sequestration by 4% HP-βCD: 20 ng RNase A, various temperatures
Protocol: FIG. 7 depicts data related to the effect of DTT on the irreversibility of RNase A inactivation in the presence of CTAB at various temperatures. To simulate authentic reaction conditions, standard APA reaction reagents lacking 9° Nm™ DNA polymerase but containing 4% HP-βCD were prepared in a lyophilized format. The lyophilized reagents also contained the RNaseAlert® assay substrate, a synthetic quenched RNA probe which releases fluorescence in the presence of active RNase A. Reagents were preincubated 2 minutes and dissolved at the indicated temperatures with […] solutions containing 20 ng RNase A ([…]) with (dotted lines) or without (shapes) 10 mM DTT which had also been preincubated at the indicated temperatures on a Bio-Rad CFx thermocycler with programmed temperature gradient.
FIG. 8 depicts data related to effect of DTT and HP-βCD on RNase A inactivation. An RNase Alert assay was used to study the effect of DTT and 0.2% cationic detergent CTAB on RNase inactivation. RNase A was spiked into solutions containing 0.2% CTAB which were then mixed with lyophilized APA reagent pellets lacking enzymes but containing RNase Alert substrate and protective agent (4% HP-0 CD) after preincubation of all solutions at 68° C. followed by fluorescence data collection at 68° C.

nasal swab ribonucleases = assay: Protection of RNA from nasal swab ribonucleases (influenza B RNA APA); format: biochemical, human; details: nasal swab eluate 4% of swab; 0.2% SDS with or without 10 mM DTT; 2 minutes at 58° C.; then 4% βCD
9° Nm™ DNA polymerase [4] = target: T2, 9° Nm™ DNA polymerase (Thermococcus sp., UniProt Q56366, E143D); assay: APA amplification of Chlamydia trachomatis DNA with CTAB, with or without HP-βCD; format: biochemical
T2 sequence (Q56366 whole entry E143D): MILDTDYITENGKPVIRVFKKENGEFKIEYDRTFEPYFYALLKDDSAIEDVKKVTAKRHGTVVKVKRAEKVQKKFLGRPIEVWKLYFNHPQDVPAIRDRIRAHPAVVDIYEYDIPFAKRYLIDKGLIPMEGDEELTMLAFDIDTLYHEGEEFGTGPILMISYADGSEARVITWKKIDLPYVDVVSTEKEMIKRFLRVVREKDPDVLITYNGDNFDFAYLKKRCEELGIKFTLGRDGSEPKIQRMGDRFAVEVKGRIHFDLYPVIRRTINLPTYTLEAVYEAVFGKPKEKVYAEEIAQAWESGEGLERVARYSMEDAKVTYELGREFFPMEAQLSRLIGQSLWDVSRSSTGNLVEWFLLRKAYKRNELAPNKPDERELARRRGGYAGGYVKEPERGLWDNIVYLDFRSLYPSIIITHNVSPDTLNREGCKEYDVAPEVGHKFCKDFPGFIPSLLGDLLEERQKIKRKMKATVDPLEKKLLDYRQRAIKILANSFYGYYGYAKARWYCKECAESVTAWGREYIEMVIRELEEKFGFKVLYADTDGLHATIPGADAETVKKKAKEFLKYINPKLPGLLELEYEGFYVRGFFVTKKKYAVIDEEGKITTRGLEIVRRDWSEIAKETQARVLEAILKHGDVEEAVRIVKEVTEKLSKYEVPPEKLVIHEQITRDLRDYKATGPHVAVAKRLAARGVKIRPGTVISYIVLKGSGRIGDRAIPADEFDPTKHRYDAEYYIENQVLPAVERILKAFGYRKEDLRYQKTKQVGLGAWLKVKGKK
Protocol: APA reactions containing CAdNTP and sequence-specific molecular beacon detection probes were performed as above in lyophilized (with HP-βCD; FIG. 3B) or wet reactions (no HP-βCD; FIG. 3A) and various amounts of the cationic detergent CTAB, without (“NTC”) or with the addition of 500 copies of C. trachomatis total cell DNA. Activation of CAdNTP by heating 2 minutes at 90° C. was followed by APA at 68° C. with fluorescence collected every 15 seconds.

[5] = cited from earlier work
RNase A [6] = target: T1, RNase A; assay: Requirements for irreversible RNase inactivation (influenza B RNA APA in presence of RNase A); format: biochemical; details: 500 ng RNase A (10 μg/ml); additions 0.2% SDS, 10 mM DTT, 0.1% Triton X-100 as labelled; 2 minutes at 58° C.; then 4% βCD
9° Nm™ DNA polymerase [7] = target: T2, 9° Nm™ DNA polymerase; assay: Order-of-addition assay (APA of S. enterica DNA, SDS and hydroxypropyl β-CD); format: biochemical; details: 4% hydroxypropyl β-CD added prior to 0.4% SDS
Protocol: Order-of-addition assay: Detection time dependent on cyclodextrin addition prior to brief interaction of enzymes with SDS. Since SDS rapidly and irreversibly inactivated 9° Nm™ DNA polymerase, when the enzyme is instead simultaneously exposed to SDS and β-CD, the kinetics of complexation of the latter two substances must be very rapid, compared with the rate of interaction between SDS and the enzyme.
FIG. 6 depicts data related to detection of S. enterica DNA target (50,000 copies) by APA reactions in a wet “hot-start” format mediated by CleanAmp™ deoxynucleotides (CAdNTP) containing Tris pH7.6, KCl, (NH4)2SO4, MgSO4, Triton X-100, SYBRI, CAdNTP, 9° Nm™ DNA polymerase, with additions of 0.4% SDS (X), 4% hydroxypropyl β-CD (squares), SDS then immediately β-CD (circles), or β-CD then SDS (solid line) with mixing. Control (ctrl dotted line) was no additions. All samples included DNA target. Isothermal APA was at 68° C., collecting intercalating dye fluorescence every 15 seconds to monitor all exponential DNA amplification. […] Negative controls for each condition without S. enterica DNA confirmed specificity of indicated amplification products (not shown).

9° Nm™ DNA polymerase [8] = target: T2, 9° Nm™ DNA polymerase; assay: APA amplification of Neisseria gonorrhea DNA with SDS, with or without HPβCD; format: biochemical; details: 4% HPβCD, lyophilized reagents, 500 copies N. gonorrhea genomic DNA
Protocol: This example provides SDS complexation analyses of the methods and compositions provided herein. […] Anionic detergent SDS at >0.01% is inhibitory to APA amplification of DNA, but the presence of the protective agent hydroxypropyl β-CD (βCD) allowed amplification to proceed despite≤0.2% SDS. The kinetics of hydroxypropyl β-CD sequestration of SDS were thus sufficiently rapid at a molar ratio of 2:1 (˜14 mM: −7 mM) to prevent 9° Nm™ DNA polymerase inactivation by SDS.
Standard APA reactions with or without 4% Sigma 389145 HPβCD containing “hot-start” CleanAmp™ deoxynucleotides (CAdNTP) and a sequence-specific molecular beacon detection probe were performed with lyophilized ((supplemented with dextran 40, Trehalose), FIG. 2B) or “wet” (no HPβCD, FIG. 2A) reagents including Tris pH 8.4, KCl, MgSO4, and (NH4)2SO4 Triton X-100, 9° Nm™ DNA polymerase, CAdNTP, primers and probe. For the lyophilized reactions, samples were prepared in 50 μl solution containing MgSO4, and (NH4)2SO4 with (shapes) or without (dashed) 500 copies of N. gonorrhea genomic DNA. After dried reagents were dissolved with the samples, various amounts of SDS were added, as indicated, and solutions were vortexed. For the wet reactions, 45 μl master mix containing all reaction components was added to 5 μl sample containing 1OX SDS (final concentration as indicated), with and without 500 copies of N. gonorrhea genomic DNA. Activation of CAdNTP by 2 minutes 90° C. was followed by APA at 68° C. for 10 minutes with detection of the NG amplification product by fluorescence collected every 15 seconds.

influenza B RNA = assay: Reverse-transcription APA detection of influenza B RNA with SDS and lyophilized reagents containing cyclodextrin; format: biochemical; details: 0.2% SDS lysis solution, 500 IU influenza B RNA, 4% betaCD in lyophilized reagents
Protocol: APA was performed with lyophilized reagents (including β-cyclodextrin, dNTPs, 35 units reverse transcriptase, KCl, EGTA (or EDTA), Tx-100, Tween 80, poly rA, Tris pH8.4, dextran 40k, 4% betaCD, trehalose, primers, probe, 9° Nml™)
After two minutes at 58° C. (to facilitate reverse transcription) the temperature was raised to 68° C. for APA and fluorescence detection.

[9] = test system: Chlamydia trachomatis elementary bodies; assay: Lysis of Chlamydia trachomatis elementary bodies, read out by APA; details: APA reaction mix containing 4% cyclodextrin HP-βCD
Protocol: Elementary body lysis (˜40/reaction) was probed in this example using an APA-based assay. Elementary bodies (Acrometrix) were added to either cold chlamydia transport media (SPD containing sucrose, phosphate buffer, and glutamic acid), TE (Tris-EDTA 10-1), or lysis buffer containing 0.4% SDS, pH 2.2. The samples in TE or SDS were heated 5 minutes at 95° C. (heat lysis) or 2 minutes at 78° C. (SDS lysis), respectively. Then 5 μl (containing 40 elementary bodies) was added to “wet” APA reaction mix as above (pH 7.6 to facilitate isothermal CAdNTP activation) containing 4% cyclodextrin HP-βCD for isothermal APA (68° C.) with fluorescence from a chlamydia-specific molecular beacon collected every 15 seconds.

Compound: O[C@H](CS)[C@H](O)CS (racemic) [DTT, dithiothreitol]
- Influenza B virus APA performance in presence of RNAse A (RNase A [1]): performance equivalent to a no RNAse A control
- Recovery of RNase A activity after pretreatment, with βCD (RNase A [2]; 2 ng RNase A, 2 minutes at 58° C., 10 mM DTT and/or 0.2% SDS, then 4% βCD): virtually full recovery of enzyme activity
- Recovery of RNase A activity after pretreatment, without addition of βCD (RNase A [2]; 10 mM DTT alone, wet RNase alert format): did not impact recovery of RNase A activity
- RNase A inactivation, activity upon sequestration of the detergent (RNase A [3]; 0.2% CTAB with 10 mM DTT, 4% HP-βCD): effectively irreversibly inactivated
- RNase A activity after CTAB sequestration by 4% HP-βCD (RNase A [3]; with 10 mM DTT): no restored activity was detected
- Influenza B RNA detection after nasal swab eluate pretreatment and SDS sequestration (nasal swab ribonucleases): restored detection

Compound: CCCCCCCCCCCCCCCC[N+](C)(C)C.[Br-] [CTAB, cetyltrimethylammonium bromide]
- CTAB concentration giving complete inactivation of APA (9° Nm™ DNA polymerase [4]; absence of HP-βCD, 500 copies C. trachomatis total cell DNA): > 0.01%
- RNase A inactivation, activity upon sequestration of the detergent (RNase A [3]; 0.2% CTAB only, RNase A 10 μg/ml and 1 μg/ml): activity was rapidly restored
- RNase A activity after CTAB sequestration by 4% HP-βCD (RNase A [3]; without DTT): immediate reversibility

Compound: OC[C@H]1O[C@@H]2O[C@H]3[C@H](O)[C@@H](O)[C@@H](O[C@H]4[C@H](O)[C@@H](O)[C@@H](O[C@H]5[C@H](O)[C@@H](O)[C@@H](O[C@H]6[C@H](O)[C@@H](O)[C@@H](O[C@H]7[C@H](O)[C@@H](O)[C@@H](O[C@H]1[C@H](O)[C@H]2O)O[C@@H]7CO)O[C@@H]6CO)O[C@@H]5CO)O[C@@H]4CO)O[C@@H]3CO [α-Cyclodextrin]
- water solubility [5]: 50 mg/mL (≈ 51.4 mM)

Compound: Triton X-100
- Influenza B RNA detection by APA after RNase A pretreatment (RNase A [6]): no RNA detection

Compound: hydroxypropyl-β-cyclodextrin [HP-βCD]
- Effect on APA amplification (9° Nm™ DNA polymerase [7]): restoring detection time, although with reduced plateau
- SDS concentration tolerated by APA amplification in presence of the protective agent (9° Nm™ DNA polymerase [8]): at least 0.2%
- SDS concentration tolerated by APA amplification in presence of the protective agent (9° Nm™ DNA polymerase [8]; listed as hydroxypropyl β-CD): ≤ 0.2%
- CTAB concentration completely tolerated by APA in presence of the protectant (9° Nm™ DNA polymerase [4]; with HP-βCD, lyophilized reactions): at least 0.2%
- Restoration of assay performance in the presence of SDS (influenza B RNA): virtually complete restoration of assay performance
- Impact of persisting 0.4% ionic detergent on 9° Nm™ DNA polymerase-mediated amplification [9]: had no impact
